Patent US10253038B2, “Fusicoccane derivatives and methods” (Florida State University Research Foundation, Inc., priority 2017, dated 2019)

How the values were obtained:
[1] = biological target: T1, 14-3-3σ•Task-3 ctp interaction (Homo sapiens, UniProt P31947); test: Fluorescence polarization (FP) of fluorescein-labeled Task-3 ctp titrated with 14-3-3σ; assay type: binding; conditions: for screen for functional interaction with 14-3-3σ•Task-3 ctp complex (result in words): library screen of 8a-j, 9-11, FIG. 3
T1 construct: made in house; host or cells: E. coli BL21
Description: (§1) Replicated in this example was Ottmann's characterization of interactions between 14-3-3σ and a synthetic hexapeptide of Task-3 containing the putative C-terminal 14-3-3-interaction motif KRRK-pS-V (Task-3 ctp). (Anders, C. et al., Chem. Biol. 2013, 13, 583-593).
(§2) Recombinant human 14-3-3σ was prepared using a bacterial expression protocol, which routinely produced 15 mg/L of purified protein. Recombinant 14-3-3σ was expressed in BL21 E. Coli cells and purified by Ni-affinity chromatography.
The titration protocol was adapted to 96-well plate format using fluorescence polarization (FP) experiments. FP measurements of fluorescein-labeled Task-3 ctp, in the absence and presence of 100 μM fusicoccin A (1), titrated with 14-3-3σ were used to obtain the apparent Kd of the 14-3-3σ•Task-3 ctp interaction. […] Also collected were FP measurements of fluorescein-labeled c-Raf peptide, in the absence and presence of 100 μM fusicoccin A (1), titrated with 14-3-3σ to obtain the apparent Kd of the 14-3-3σ•c-Raf peptide interaction.
Error bars indicate the mean±SD of three independent experiments.
In view of the foregoing control data, a library of synthetic derivatives, including 8a-j, 9-11, was screened for functional interactions 14-3-3σ•Task-3 ctp complex. […]

[2] = biological target: T2, 14-3-3σ•Task-3 ctp (Homo sapiens, UniProt P31947); test: Isothermal titration calorimetry (ITC) of Task-3 ctp with 14-3-3σ in the presence and absence of fusicoccin A; assay type: binding; conditions: 100 μM fusicoccin A vs absence
T2 construct: made in house; host or cells: E. coli BL21
Description: as §1, §2
This was determined by the association of ITC binding isotherms for Task-3 ctp with 14-3-3σ in the presence and absence of 100 μM of fusicoccin A (1).

[3] = system: 14-3-3•PMA2 complex; conditions: background statement; cited from earlier work

T1 sequence (P31947 whole entry, other chains not shown): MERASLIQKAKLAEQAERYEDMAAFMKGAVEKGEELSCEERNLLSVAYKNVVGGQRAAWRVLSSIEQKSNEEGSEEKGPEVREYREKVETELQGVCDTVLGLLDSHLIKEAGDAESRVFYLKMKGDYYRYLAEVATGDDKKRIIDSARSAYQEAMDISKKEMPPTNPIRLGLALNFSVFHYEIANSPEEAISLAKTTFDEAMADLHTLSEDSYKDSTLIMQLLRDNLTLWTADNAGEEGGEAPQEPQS
T2 sequence (P31947 whole entry, other chains not shown): as above

O=C1CCC2=C1[C@H]1C=C[C@]3(CCC[C@H]3C2)O1 (racemic) [compound 8a, (±)-1,2,3,6,8,9,10,10a-octahydro-7H-3a,6-epoxydicyclopenta[a,d] [8]annulen-7-one]
melting point: 50.8 to 51.3 °C

CC1CC(=O)C2C3C=CC4(CCCC4CC12)O3 (racemic) [compound 9, (±)-9-Methyl-1,2,3,6,6a,8,9,9a, 10,10a-decahydro-7H-3a,6-epoxydicyclopenta[a,d] [8]annulen-7-one]
melting point: 88.9 to 91.3 °C

C=C(C)C1=C2[C@H]3C=C[C@]4(CCC[C@H]4C[C@@]2(C)CC1)O3 (racemic) [compound 11]
fold enhancement of apparent affinity of Task-3 ctp to 14-3-3σ ([1]; FP, DMSO (10%) in buffer, 1.6 mM compound): 1.2 fold
screen for functional interaction with 14-3-3σ•Task-3 ctp complex (result in words) [1]: increase the apparent affinity

O=C1CCC2=C1[C@@]1(CN3CCOCC3)C=C[C@]3(CCC[C@H]3C2)O1 [compound 8f]
fold enhancement of apparent affinity of Task-3 ctp to 14-3-3σ ([1]; FP, DMSO (10%) in buffer, 6.3 mM compound): 1.1 fold
screen for functional interaction with 14-3-3σ•Task-3 ctp complex (result in words) [1]: increase the apparent affinity

C=CC(C)(C)OC[C@H]1O[C@H](O[C@@H]2C3=C([C@H](C)COC(C)=O)C[C@H](O)[C@]3(C)/C=C3/[C@@H](COC)CC[C@H]3[C@@H](C)[C@H]2O)[C@H](O)[C@@H](OC(C)=O)[C@@H]1O [fusicoccin A, reference compound]
fold stabilization of 14-3-3σ•Task-3 ctp [2]: 152 fold
prolongation of the lifetime of the 14-3-3•PMA2 complex [3]: 90 fold
fold enhancement of apparent affinity of Task-3 ctp to 14-3-3σ ([1]; FP, 100 μM fusicoccin A): 37 fold
EC50 ([1]; FP, fluorescein-labeled Task-3 ctp and 14-3-3σ titrated with compound, mean±SD of three experiments, read-out: EC50 of stabilization of the 14-3-3σ•Task-3 ctp complex): 1400 ± 300 nM
